This assay concerns Escherichia coli ATCC25922 standard strain. The experiment in a line: urinary and renal bacterial culture of acute pyelonephritis rats. It is filed as in vivo, SD rats. The settings on record: gavage, 10 days; for Renal bacterial culture score: mean score, scale 1-4 of Table 10 (colony number <10, >10, >100, >1000); for Urinary bacterial A value (OD600 nm): urine culture. Here is the method:
Ninety male SD rats having a weight of 180-220 g are selected, wherein: ten rats are selected as a sham-operated group (only being processed with ligation, without injecting with Escherichia coli), and the remaining rats are injected with Escherichia coli ATCC25922 standard strain having a concentration of 10^8/ml according to the method (disclosed in the Chinese Journal of Laboratory Animal Science, 1998, 8(1): pages 31-34) for preparing the acute pyelonephritis model rats.
After three days, urine of the rats is collected for bacterial culture, and the growth situation of the bacteria is observed. If the result is positive, the model rats are successively established; the unqualified rats are excluded, and the operation is made again for complementing the rats. The successively established model rats are randomly divided into the model group, the norfloxacin group (66.7 mg/kg), the LM49 solid dispersion low-dose group (with the drug concentration of 3 mg/kg), the LM49 solid dispersion medium-dose group (with the drug concentration of 9 mg/kg), the LM49 solid dispersion high-dose group (with the drug concentration of 27 mg/kg), the A8 solid dispersion low-dose group (with the drug concentration of 3 mg/kg), the A8 solid dispersion medium-dose group (with the drug concentration of 9 mg/kg), and the A8 solid dispersion high-dose group (with the drug concentration of 27 mg/kg).
The rats of the sham-operated group and the model group are administrated with the normal saline of same volume by gavage, and the rats of the other groups are respectively administrated with the drugs of the corresponding dose, once a day for consecutive ten days.
After finishing administration, urine of the rats of all groups is collected (for observing the bacterial growth situation). The abdominal aorta blood of the rats is drawn (for measuring the blood routine, CD4/CD8, urine creatinine and serum creatinine in the serum; and for measuring contents of IL-1α, IL-1β, IL-6, IL-10 and MCP-1 in the serum with the ELISA method). Two kidneys of each rat are cut (wherein a part is homogenated for bacterial culture, and the other part is used for observing the pathomorphology change).

Consider `O=C(c1cc(OC(=O)N2CCOCC2)c(OC(=O)N2CCOCC2)cc1Cl)c1cc(Cl)ccc1OC(=O)N1CCOCC1` [A8, 4,5,2′-tris(4-morpholinemethanoyl)-2,5′-dichlorobenzophenone], for which the “Renal bacterial culture score” value runs as follows: (high-dose 27 mg/kg) 1.5 ± 0.33^ΔΔ; (low-dose 3 mg/kg) 3.6 ± 0.57^; (medium-dose 9 mg/kg) 2.6 ± 0.23^Δ. Also, the “Urinary bacterial A value (OD600 nm)” value is 0.274 ± 0.113^ΔΔ (high-dose 27 mg/kg), 0.332 ± 0.131^ (low-dose 3 mg/kg) and 0.304 ± 0.125^Δ (medium-dose 9 mg/kg).
In the case of `O=C(c1cc(Br)ccc1O)c1cc(O)c(O)cc1Br` [LM49, 2,5′-dibromo-4,5,2′-trihydroxyldiphenylmethanone], the “Renal bacterial culture score” value is, setting by setting: (high-dose 27 mg/kg) 1.9 ± 0.57^ΔΔ; (low-dose 3 mg/kg) 3.9 ± 0.32^; (medium-dose 9 mg/kg) 3.4 ± 0.52^Δ. Besides, the “Urinary bacterial A value (OD600 nm)” value was 0.304 ± 0.109^Δ (high-dose 27 mg/kg), 0.353 ± 0.128^ (low-dose 3 mg/kg) and 0.331 ± 0.100^Δ (medium-dose 9 mg/kg).

The values above are taken from patent publication US20190133968A1, “Applications of benzophenones in preparation of drug” (SHANXI MEDICAL UNIVERSITY, priority 2016, published 2019).
